Data taken from PubChem BioAssay AID328 (DTP/NCI, 2004).
Where “and” joins values, the source holds several entries; their conditions need not be identical. Equal entries are not always repeated. Toxic doses and inconclusive results are not listed.

System: BDF1 mice, P388 leukemia ip, median survival T/C
Assay: NCI In Vivo Anticancer Drug Screen. Data for tumor model P388 Leukemia (intraperitoneal) in B6D2F1 (BDF1) mice
Conditions: endpoint: median survival time, higher = longer survival
Outline: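 Each value expresses how treatment altered survival: treated-mouse outcome over vehicle-mouse outcome, both groups bearing the transplanted tumour.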

[1] = dose: 100.0 mg/kg/injection, schedule: Q01DX009 (ip), vehicle: Klucel (hydroxypropylcellulose) (HPC)
[2] = dose: 200.0 mg/kg/injection, schedule: Q01DX009 (ip), vehicle: Klucel (hydroxypropylcellulose) (HPC)
[3] = dose: 100.0 mg/kg/injection, schedule: Q01DX009 (ip), vehicle: saline
[4] = dose: 100.0 mg/kg/injection, schedule: Q04DX003 (ip), vehicle: saline
[5] = dose: 200.0 mg/kg/injection, schedule: Q01DX009 (ip), vehicle: saline
[6] = dose: 200.0 mg/kg/injection, schedule: Q04DX003 (ip), vehicle: saline
[7] = dose: 400.0 mg/kg/injection, schedule: Q04DX003 (ip), vehicle: saline
[8] = dose: 25.0 mg/kg/injection, schedule: Q01DX009 (ip), vehicle: saline with Tween-80
[9] = dose: 50.0 mg/kg/injection, schedule: Q01DX009 (ip), vehicle: saline with Tween-80
[10] = dose: 100.0 mg/kg/injection, schedule: Q01DX009 (ip), vehicle: saline with Tween-80
[11] = dose: 100.0 mg/kg/injection, schedule: Q04DX003 (ip), vehicle: saline with Tween-80
[12] = dose: 200.0 mg/kg/injection, schedule: Q01DX009 (ip), vehicle: saline with Tween-80
[13] = dose: 200.0 mg/kg/injection, schedule: Q04DX003 (ip), vehicle: saline with Tween-80
[14] = dose: 400.0 mg/kg/injection, schedule: Q04DX003 (ip), vehicle: saline with Tween-80
[15] = dose: 50.0 mg/kg/injection, schedule: Q01DX009 (ip), vehicle: saline

## CC1=C(N2CCN(c3ccc(Cl)cc3)CC2)C(=O)CC(C)(C)C1
[1]
  T/C: 110 % of control
[2]
  T/C: 105 % of control
dose: 400.0 mg/kg/injection, schedule: Q01DX009 (ip), vehicle: Klucel (hydroxypropylcellulose) (HPC)
  T/C: 100 % of control

## CO[C@H]1CC=C2CCN3CCCc4cc5c(cc4[C@]23C1)OCO5
dose: 10.0 mg/kg/injection, schedule: Q01DX009 (ip), vehicle: alcohol
  T/C: 100 % of control
dose: 20.0 mg/kg/injection, schedule: Q01DX009 (ip), vehicle: alcohol
  T/C: 100 % of control

## O=c1[nH]cc[nH]1
[3]
  T/C: 95 % of control
[4]
  T/C: 100 % of control
[5]
  T/C: 114 % of control
[6]
  T/C: 108 % of control
dose: 264.0 mg/kg/injection, schedule: Q01DX009 (ip), vehicle: saline
  T/C: 122 % of control
dose: 400.0 mg/kg/injection, schedule: Q01DX009 (ip), vehicle: saline
  T/C: 122 % of control
[7]
  T/C: 104 % of control

## CC(C)C(C(=O)c1ccccc1)c1ccccc1 (stereo not drawn)
[8]
  T/C: 95 % of control
[9]
  T/C: 109 % of control
[10]
  T/C: 100 % of control
[11]
  T/C: 100 % of control
[12]
  T/C: 100 % of control
[13]
  T/C: 118 % of control
dose: 400.0 mg/kg/injection, schedule: Q01DX009 (ip), vehicle: saline with Tween-80
  T/C: 100 % of control
[14]
  T/C: 100 % of control

## CC(=O)[C@H]1CC[C@H]2[C@@H]3CC[C@@H]4C[C@@H](O)CC[C@]4(C)[C@H]3CC[C@]12C
dose: 163.0 mg/kg/injection, schedule: Q01DX009 (ip), vehicle: saline with Tween-80
  T/C: 109 % of control
dose: 325.0 mg/kg/injection, schedule: Q01DX009 (ip), vehicle: saline with Tween-80
  T/C: 100 % of control

## COC1(c2ccccc2)CN(Cc2ccccc2)CCO1 (stereo not drawn)
dose: 50.0 mg/kg/injection, schedule: Q01DX009 (ip), vehicle: Klucel (hydroxypropylcellulose) (HPC)
  T/C: 113 % of control
[1]
  T/C: 118 % of control
dose: 100.0 mg/kg/injection, schedule: Q04DX003 (ip), vehicle: Klucel (hydroxypropylcellulose) (HPC)
  T/C: 113 % of control
[2]
  T/C: 95 % of control
dose: 200.0 mg/kg/injection, schedule: Q04DX003 (ip), vehicle: Klucel (hydroxypropylcellulose) (HPC)
  T/C: 113 % of control

## O=c1/c(=C\C=C\c2ccccc2)sc2n1CCN=2
[9]
  T/C: 92 % of control
[10]
  T/C: 92 % of control
[12]
  T/C: 92 % of control

## O=P(Oc1ccc(OP(=O)(N2CC2)N2CC2)cc1)(N1CC1)N1CC1
dose: 50.0 mg/kg/injection, schedule: Q04DX003 (ip), vehicle: saline
  T/C: 168 % of control
dose: 75.0 mg/kg/injection, schedule: Q04DX003 (ip), vehicle: saline
  T/C: 177 % of control
dose: 115.0 mg/kg/injection, schedule: Q04DX003 (ip), vehicle: saline with Tween-80
  T/C: 190 % of control
dose: 175.0 mg/kg/injection, schedule: Q04DX003 (ip), vehicle: saline with Tween-80
  T/C: 254 % of control
dose: 264.0 mg/kg/injection, schedule: Q04DX003 (ip), vehicle: saline with Tween-80
  T/C: 150 % of control
[14]
  T/C: 254 % of control

## O=C(CC(NC(=O)OCc1ccccc1)c1nn[nH]n1)OCc1ccccc1 (stereo not drawn)
[11]
  T/C: 100 % of control
[13]
  T/C: 95 % of control
[14]
  T/C: 95 % of control

## c1ccc(N=NC2=NN(c3ccccc3)CCS2)cc1
[8]
  T/C: 116 % of control
[9]
  T/C: 105 % of control
[10]
  T/C: 122 % of control

## COc1ccc(C(=O)CC(c2ccc(OC)c(OC)c2)c2c(O)c3ccccc3oc2=O)cc1OC (stereo not drawn)
dose: 12.5 mg/kg/injection, schedule: Q01DX009 (ip), vehicle: saline
  T/C: 101 % of control
dose: 25.0 mg/kg/injection, schedule: Q01DX009 (ip), vehicle: saline
  T/C: 111 % of control
[15]
  T/C: 101 % of control
[3]
  T/C: 109 % of control
[5]
  T/C: 93 % of control

## CSCCC(NC(C)=O)C(=O)O (stereo not drawn)
[3]
  T/C: 96 % of control
[4]
  T/C: 87 % of control
[5]
  T/C: 88 % of control
[6]
  T/C: 87 % of control
[7]
  T/C: 91 % of control

## NN=C(NN)NN
[15]
  T/C: 105 % of control
[3]
  T/C: 105 % of control
[5]
  T/C: 96 % of control

## COC(=O)c1c(OC)ccc2c1CC1C3Nc4ccccc4C3CCN1C2 (stereo not drawn)
dose: 50.0 mg/kg/injection, schedule: Q04DX003 (ip), vehicle: saline sonified
  T/C: 100 % of control
dose: 100.0 mg/kg/injection, schedule: Q04DX003 (ip), vehicle: saline sonified
  T/C: 100 % of control
dose: 200.0 mg/kg/injection, schedule: Q04DX003 (ip), vehicle: saline sonified
  T/C: 100 % of control

## CC(=O)Nc1c(Cl)c(Cl)c2c(c1Cl)C(=O)c1cc(Cl)ccc1-2
[10]
  T/C: 90 % of control
[11]
  T/C: 90 % of control
[13]
  T/C: 90 % of control
[14]
  T/C: 95 % of control

## COc1ccc(N2C(=O)CC(Sc3ccccc3N)C2=O)cc1 (stereo not drawn)
dose: 50.0 mg/kg/injection, schedule: Q01DX001 (ip), vehicle: Klucel (hydroxypropylcellulose) (HPC)
  T/C: 100 % of control
dose: 100.0 mg/kg/injection, schedule: Q01DX001 (ip), vehicle: Klucel (hydroxypropylcellulose) (HPC)
  T/C: 104 % of control

## CCCCCCCNC(=O)Nc1cc([N+](=O)[O-])ccc1C
[11]
  T/C: 100 % of control
[13]
  T/C: 100 % of control
[14]
  T/C: 104 % of control

## COc1cc(C2c3cc4c(cc3C(O)C3COC(=O)C23)OCO4)cc(O)c1OC (stereo not drawn)
dose: 2.0 mg/kg/injection, schedule: Q01DX009 (ip), vehicle: saline
  T/C: 120 % of control
dose: 4.0 mg/kg/injection, schedule: Q01DX009 (ip), vehicle: saline
  T/C: 105 % of control

## OC1CCCCC2CC12 (stereo not drawn)
[9]
  T/C: 101 % of control
[10]
  T/C: 101 % of control
[12]
  T/C: 102 % of control

## CC(C)(C)NCCC(O)c1cc(C(F)(F)F)nc2c(C(F)(F)F)cccc12 (stereo not drawn)
[9]
  T/C: 105 % of control
[10]
  T/C: 104 % of control

## C1CC2CCCC3CC(B4OCCO4)CC(C1)C23 (stereo not drawn) (tested in a mixture with another compound)
dose: 100.0 mg/kg/injection, schedule: Q04DX003 (ip), vehicle: other
  T/C: 120 % of control
dose: 200.0 mg/kg/injection, schedule: Q04DX003 (ip), vehicle: other
  T/C: 100 % of control
dose: 400.0 mg/kg/injection, schedule: Q04DX003 (ip), vehicle: other
  T/C: 100 % of control

## COc1cc(Nc2c3ccccc3nc3ccccc23)cc(OC)c1OC
dose: 12.5 mg/kg/injection, schedule: Q01DX009 (ip), vehicle: saline with Tween-80
  T/C: 97 % of control and 99 % of control
[8]
  T/C: 112 % of control
[9]
  T/C: 109 % of control and 115 % of control

## CCN1CC1 (tested in a mixture with another compound)
dose: 0.14 mg/kg/injection, schedule: Q01DX009 (ip), vehicle: saline
  T/C: 95 % of control
dose: 0.29 mg/kg/injection, schedule: Q01DX009 (ip), vehicle: saline
  T/C: 86 % of control
dose: 0.58 mg/kg/injection, schedule: Q01DX009 (ip), vehicle: saline
  T/C: 90 % of control
dose: 1.17 mg/kg/injection, schedule: Q01DX009 (ip), vehicle: saline
  T/C: 120 % of control
dose: 2.34 mg/kg/injection, schedule: Q01DX009 (ip), vehicle: saline
  T/C: 120 % of control

## CCN(CC)c1ccc2cc3ccc(=[N+](CC)CC)cc-3oc2c1
dose: 2.5 mg/kg/injection, schedule: Q01DX009 (ip), vehicle: saline
  T/C: 120 % of control
dose: 7.5 mg/kg/injection, schedule: Q01DX009 (ip), vehicle: saline sonified
  T/C: 120 % of control
dose: 10.0 mg/kg/injection, schedule: Q04DX003 (ip), vehicle: saline
  T/C: 104 % of control

## O=C1CCC(N2C(=O)c3ccccc3C2=O)C(=O)N1 (stereo not drawn)
dose: 100.0 mg/kg/injection, schedule: Q01DX010 (ip), vehicle: saline
  T/C: 96 % of control
dose: 200.0 mg/kg/injection, schedule: Q01DX010 (ip), vehicle: saline
  T/C: 96 % of control
dose: 400.0 mg/kg/injection, schedule: Q01DX010 (ip), vehicle: saline
  T/C: 92 % of control
dose: 800.0 mg/kg/injection, schedule: Q01DX010 (ip), vehicle: saline
  T/C: 92 % of control

## CCCCCCCCCC(=O)NC(COC1OC(CO)C(O)C(O)C1O)C(O)c1ccccc1 (stereo not drawn)
dose: 25.0 mg/kg/injection, schedule: Q01DX009 (ip), vehicle: suspension in saline
  T/C: 98 % of control
dose: 50.0 mg/kg/injection, schedule: Q01DX009 (ip), vehicle: suspension in saline
  T/C: 108 % of control
dose: 100.0 mg/kg/injection, schedule: Q01DX009 (ip), vehicle: suspension in saline
  T/C: 102 % of control

## Oc1ccccc1C=NC1CCCCC1.Oc1ccccc1C=NC1CCCCC1.[Co+2]
dose: 50.0 mg/kg/injection, schedule: Q01DX001 (ip), vehicle: saline sonified
  T/C: 90 % of control
dose: 100.0 mg/kg/injection, schedule: Q01DX001 (ip), vehicle: saline sonified
  T/C: 109 % of control
dose: 200.0 mg/kg/injection, schedule: Q01DX001 (ip), vehicle: saline sonified
  T/C: 109 % of control
